Source: ChEMBL document CHEMBL5247629, “C-6 fluorinated casuarines as highly potent and selective amyloglucosidase inhibitors: Synthesis and structure-activity relationship study” (Eur J Med Chem, 2022)

Assays:
[1] = target: Alpha-galactosidase (Coffea arabica) (UniProt Q42656); experiment: Inhibition of coffee bean alpha-galactosidase using p-nitrophenyl glycoside as substrate at 1000 uM by spectrometric method relative to control
[2] = target: T1, Alpha-mannosidase (Canavalia ensiformis) (UniProt C0HJB3); experiment: Inhibition of jack bean alpha-mannosidase using p-nitrophenyl glycoside as substrate at 1000 uM by spectrometric method relative to control
T1 sequence (whole entry): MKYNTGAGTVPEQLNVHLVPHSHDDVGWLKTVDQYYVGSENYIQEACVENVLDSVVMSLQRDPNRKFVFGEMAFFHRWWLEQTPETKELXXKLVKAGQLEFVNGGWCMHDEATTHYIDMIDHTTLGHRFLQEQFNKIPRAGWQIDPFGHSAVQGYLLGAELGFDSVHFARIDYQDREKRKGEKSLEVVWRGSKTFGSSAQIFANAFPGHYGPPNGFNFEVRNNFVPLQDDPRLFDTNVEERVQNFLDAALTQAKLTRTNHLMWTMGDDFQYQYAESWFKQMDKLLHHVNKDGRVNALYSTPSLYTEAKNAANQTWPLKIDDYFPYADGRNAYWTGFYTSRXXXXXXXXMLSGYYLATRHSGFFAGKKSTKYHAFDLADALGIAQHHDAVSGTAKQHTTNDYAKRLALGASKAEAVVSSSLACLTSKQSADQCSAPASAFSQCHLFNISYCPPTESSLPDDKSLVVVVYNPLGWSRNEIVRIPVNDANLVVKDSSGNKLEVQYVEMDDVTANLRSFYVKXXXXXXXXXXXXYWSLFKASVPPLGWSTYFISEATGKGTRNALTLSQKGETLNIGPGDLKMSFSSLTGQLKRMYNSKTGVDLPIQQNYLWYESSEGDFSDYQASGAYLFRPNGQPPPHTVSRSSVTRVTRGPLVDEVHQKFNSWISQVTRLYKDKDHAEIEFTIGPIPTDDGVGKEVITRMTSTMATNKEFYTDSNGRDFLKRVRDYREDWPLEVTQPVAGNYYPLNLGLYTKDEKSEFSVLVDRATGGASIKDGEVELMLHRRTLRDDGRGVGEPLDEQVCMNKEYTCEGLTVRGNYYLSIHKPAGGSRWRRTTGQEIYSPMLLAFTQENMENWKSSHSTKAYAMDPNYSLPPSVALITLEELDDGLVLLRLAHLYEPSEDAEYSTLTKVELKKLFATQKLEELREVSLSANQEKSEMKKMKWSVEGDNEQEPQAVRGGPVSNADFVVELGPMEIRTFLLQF

[3] = Inhibition of porcine kidney alpha/alpha-trehalase using p-nitrophenyl glycoside as substrate by spectrometric method; parameters: species or system Sus scrofa
Prunus dulcis = experiment: Inhibition of almond beta-glucosidase using p-nitrophenyl glycoside as substrate at 1000 uM by spectrometric method relative to control
Helix pomatia = experiment: Inhibition of snail beta-mannosidase using p-nitrophenyl glycoside as substrate at 1000 uM by spectrometric method relative to control
[4] = target: T2, Tissue alpha-L-fucosidase (Bos taurus) (UniProt Q2KIM0); experiment: Inhibition of bovine kidney alpha-L-fucosidase using p-nitrophenyl glycoside as substrate at 1000 uM by spectrometric method relative to control; type: tissue-based
T2 sequence (whole entry): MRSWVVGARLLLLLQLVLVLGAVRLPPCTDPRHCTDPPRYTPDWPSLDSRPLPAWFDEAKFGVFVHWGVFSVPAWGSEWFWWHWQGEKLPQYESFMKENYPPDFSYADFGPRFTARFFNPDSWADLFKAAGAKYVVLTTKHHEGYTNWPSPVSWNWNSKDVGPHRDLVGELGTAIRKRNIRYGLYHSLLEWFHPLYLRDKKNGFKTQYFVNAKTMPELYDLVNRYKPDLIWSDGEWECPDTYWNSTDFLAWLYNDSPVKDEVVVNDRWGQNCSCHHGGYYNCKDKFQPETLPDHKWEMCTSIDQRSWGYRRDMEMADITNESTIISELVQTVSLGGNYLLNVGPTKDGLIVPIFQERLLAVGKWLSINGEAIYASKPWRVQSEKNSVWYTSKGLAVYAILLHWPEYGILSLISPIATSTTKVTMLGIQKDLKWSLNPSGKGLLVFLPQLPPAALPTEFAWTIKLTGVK

Penicillium decumbens = experiment: Inhibition of Penicillium decumbens alpha-L-rhamnosidase using p-nitrophenyl glycoside as substrate at 1000 uM by spectrometric method relative to control
Alpha-glucosidase = Alpha-glucosidase (Saccharomyces cerevisiae S288c, UniProt P53341+P38158+P07265); experiment: Inhibition of yeast alpha-glucosidase using p-nitrophenyl glycoside as substrate by spectrometric method; type: protein assay
Bos taurus [5] = species: Bos taurus; experiment: Inhibition of bovine liver beta-glucuronidase using p-nitrophenyl glycoside as substrate at 1000 uM by spectrometric method relative to control; type: tissue-based
Escherichia coli = experiment: Inhibition of Escherichia coli beta-glucuronidase using p-nitrophenyl glycoside as substrate at 1000 uM by spectrometric method relative to control
Bos taurus [6] = species: Bos taurus; experiment: Inhibition of bovine liver beta-glucosidase using p-nitrophenyl glycoside as substrate at 1000 uM by spectrometric method relative to control; type: tissue-based
Bos taurus [7] = species: Bos taurus; experiment: Inhibition of bovine liver beta-galactosidase using p-nitrophenyl glycoside as substrate at 1000 uM by spectrometric method relative to control; type: tissue-based
Oryza sativa = experiment: Inhibition of rice alpha-glucosidase using p-nitrophenyl glycoside as substrate at 1000 uM by spectrometric method relative to control
[8] = Inhibition of rat intestinal maltase using maltose as substrate at pH 6.8 by colorimetric method; type: tissue-based, Intestine
[9] = Inhibition of Aspergillus niger amyloglucosidase using p-nitrophenyl glycoside as substrate by spectrometric method
[10] = Inhibition of rice alpha-glucosidase using p-nitrophenyl glycoside as substrate by spectrometric method; parameters: species or system Oryza sativa
[11] = target: Alpha-glucosidase (Saccharomyces cerevisiae S288c) (UniProt P53341+P38158+P07265); experiment: Inhibition of yeast alpha-glucosidase using p-nitrophenyl glycoside as substrate at 1000 uM by spectrometric method relative to control; type: protein assay
[12] = Inhibition of bovine liver beta-glucosidase using p-nitrophenyl glycoside as substrate by spectrometric method; type: tissue-based, Bos taurus
[13] = Inhibition of bovine liver beta-galactosidase using p-nitrophenyl glycoside as substrate by spectrometric method; parameters: species or system Bos taurus
Sus scrofa = species: Sus scrofa; experiment: Inhibition of porcine kidney alpha/alpha-trehalase using p-nitrophenyl glycoside as substrate at 1000 uM by spectrometric method relative to control; type: tissue-based
[14] = Inhibition of almond beta-glucosidase using p-nitrophenyl glycoside as substrate by spectrometric method; parameters: species or system Prunus dulcis
[15] = Inhibition of Penicillium decumbens alpha-L-rhamnosidase using p-nitrophenyl glycoside as substrate by spectrometric method
Rattus norvegicus = species: Rattus norvegicus; experiment: Inhibition of rat intestinal maltase using maltose as substrate at 1000 uM at pH 6.8 by colorimetric method relative to control; type: tissue-based; conditions: Intestine

Alpha-galactosidase (Coffea arabica), sequence (Q42656 16-378 limits assumed): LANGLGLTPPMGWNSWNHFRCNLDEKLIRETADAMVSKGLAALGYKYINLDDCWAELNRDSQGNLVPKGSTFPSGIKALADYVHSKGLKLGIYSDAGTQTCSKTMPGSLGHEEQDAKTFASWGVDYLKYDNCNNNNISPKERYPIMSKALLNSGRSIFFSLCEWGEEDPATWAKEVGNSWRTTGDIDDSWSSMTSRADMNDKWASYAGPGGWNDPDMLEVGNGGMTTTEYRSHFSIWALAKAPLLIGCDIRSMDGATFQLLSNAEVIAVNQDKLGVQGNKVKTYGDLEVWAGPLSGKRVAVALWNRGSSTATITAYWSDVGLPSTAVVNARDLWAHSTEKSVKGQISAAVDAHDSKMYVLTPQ

Compound	inhibition [1] [%]	inhibition [2] [%]	IC50 [3] [µM]	inhibition (Prunus dulcis) [%]	inhibition (Helix pomatia) [%]	inhibition [4] [%]	inhibition (Penicillium decumbens) [%]	inhibition (Bos taurus [5]) [%]	inhibition (Escherichia coli) [%]	inhibition (Bos taurus [6]) [%]	inhibition (Bos taurus [7]) [%]	inhibition (Oryza sativa) [%]	IC50 [8] [µM]	IC50 [9] [µM]	pIC50 [9]	IC50 [10] [µM]	inhibition [11] [%]	inhibition (Sus scrofa) [%]	IC50 [14] [µM]	also measured
OC[C@@H]1[C@@H](O)[C@H](O)[C@H]2C[C@H](O)CN12	4.5	2.2	22	10.5	2.4	0	11.2	14	4.3	13.9	25.4	12.4	248	42	4.377	–	–	–	–	IC50 (Alpha-glucosidase): 466 µM
OC[C@@H]1[C@@H](O)[C@H](O)[C@H]2C[C@@H](O)CN12	4.4	6.3	124	13.6	3.6	14.8	6.3	10.8	20.5	21.9	5.9	–	72	40	4.398	234	44.1	–	–	–
OC[C@@H]1[C@@H](O)[C@H](O)[C@H]2[C@H](O)C(F)(F)CN21	1.2	6.3	–	–	0	6.8	5.6	15.9	2.6	–	–	–	167	2.1	5.678	48	24	5.9	266	IC50 [12]: 747 µM; IC50 [13]: 390 µM
OC[C@@H]1[C@@H](O)[C@H](O)[C@H]2[C@H](O)[C@H](F)CN21	1.7	5.8	–	–	5.9	7.6	–	11.6	4.3	43.8	47.6	12.7	–	0.14	6.854	–	12	15.6	395	IC50 [15]: 488 µM; inhibition (Rattus norvegicus): 33%
